Series [1] in a line: Antioxidant activity assessed as DPPH radical scavenging capacity at 0.1 mM incubated for 30 mins under dark condition by absorbance based assay. The format is functional. On the technique in general: The DPPH test is a chemical assay of radical scavenging.
The nature of series [2]: Antioxidant activity assessed as DPPH radical scavenging capacity at 1 mM incubated for 30 mins under dark condition by absorbance based assay. The format is functional.
The species named for series [3] is Mus musculus. The series is described as follows: Antioxidant activity in mouse brain homogenate assessed as inhibition of FeSO4/ascorbic acid induced lipid autoxidation by measuring reduction in TBARS formation at 0.1 mM preincubated with compound for 30 mins followed by FeSO4/ascorbic acid addition and measured after 1 hrs by TBARS assay. Type of series: functional. The note with it: time 1.5 hrs.

The species named for series [4] is Mus musculus. The series is described as follows: Antioxidant activity in mouse brain homogenate assessed as inhibition of FeSO4/ascorbic acid induced lipid autoxidation by measuring reduction in TBARS formation at 1 mM preincubated with compound for 30 mins followed by FeSO4/ascorbic acid addition and measured after 1 hrs by TBARS assay. The note with it: time 1.5 hrs. The format is functional.

For series [5], the species on record is Mus musculus. The series is described as follows: Antioxidant activity in mouse brain homogenate assessed as inhibition of FeSO4/ascorbic acid induced lipid autoxidation by measuring reduction in TBARS formation at 0.5 mM preincubated with isopropanol for 30 mins followed by compound addition for 30 mins and measured 1 hrs after FeSO4/ascorbic acid addition by TBARS assay. The note with it: time 1.5 hrs. Type of series: functional.

In series [6] the test system is Erythrocyte. The series is described as follows: Antioxidant activity in mouse RBC assessed as inhibition of H2O2-induced hemolytic activity at 0.01 mM preincubated with compound for 30 mins followed by H2O2 addition and measured for 5 hrs. The format is functional, cell-based. The note with it: time 5.5 hrs.
Series [7] deals with Erythrocyte. The experiment in a line: Antioxidant activity in H2O2-induced mouse RBC assessed as inhibition of lipid peroxidation by measuring MDA formation at 0.01 mM preincubated with compound for 30 mins followed by H2O2 addition and measured after 4 hrs by spectrophotometric analysis. The format is functional, cell-based. The note with it: time 4.5 hrs.
Series [8] relates to Erythrocyte. The series is described as follows: Antioxidant activity in mouse RBC assessed as inhibition of H2O2-induced hemolytic activity at 0.1 mM preincubated with compound for 30 mins followed by H2O2 addition and measured after 5 hrs. Type of series: functional, cell-based. The note with it: time 5.5 hrs.
The test system of series [9] is Erythrocyte. The series is described as follows: Antioxidant activity in H2O2-induced mouse RBC cells assessed as inhibition of methemoglobin formation at 0.01 mM preincubated with compound for 30 mins followed by H2O2 addition and measured after 5 hrs. The format is functional, cell-based. The settings on record: time 5.5 hrs.
Series [10] relates to Erythrocyte. The series is described as follows: Antioxidant activity in H2O2-induced mouse RBC cells assessed as inhibition of ferryl-hemoglobin formation at 0.01 mM preincubated with compound for 30 mins followed by H2O2 addition and measured after 5 hrs. Type of series: functional, cell-based. The settings on record: time 5.5 hrs.
The test system of series [11] is Erythrocyte. The experiment in a line: Antioxidant activity in mouse RBC assessed as inhibition of H2O2-induced hemolytic activity at 0.01 mM preincubated with compound for 30 mins followed by H2O2 addition and measured at 1 to 3 hrs. Type of series: functional, cell-based. The note with it: time 1.5-3.5 hrs.
The nature of series [12]: Hemolytic activity in mouse RBC assessed as hemolysis at 0.1 mM measured after 5 hrs. The format is toxicity, cell-based, Erythrocyte. The settings on record: mouse red blood cells, read-out: Activity.
Series [13] has as its system Erythrocyte. The experiment in a line: Antioxidant activity in H2O2-induced mouse RBC cells assessed as reduction in metHB/oxyHB ratio at 0.01 mM preincubated with compound for 30 mins followed by H2O2 addition and measured after 5 hrs. Type of series: functional, cell-based. The note with it: time 5.5 hrs.

Calls of active or inactive are those of the source. The calls are words filed in the database; no cut-off is given here. Some results are limits rather than exact numbers.

Consider `C=CCc1c(OC)c(OC)c2c(c1OC)OCO2`, for which the values for the Activity in series [1] and in series [2] were 0.91% and 4.3%, respectively. Further, the outcome in the series filed under Mus musculus [3] and in the series filed under Mus musculus [4] was Active. For the same compound, the outcome in the series filed under Mus musculus [5], in the series on Erythrocyte [6] and in the series on Erythrocyte [7] was inactive.
Regarding `C=CCc1cc(OC)c2c(c1)OCO2` [ELEMICIN], the Activity in series [1] is 1.31%; in [2] it was 5.25%. Further, the outcome in the series listed under Mus musculus [3], in the series listed under Mus musculus [4], in the series with Erythrocyte [6], with Erythrocyte [8], with Erythrocyte [9] and in the series with Erythrocyte [10] was Active. The outcome in the series listed under Mus musculus [5] was inactive.
As to `C=CCc1c(O)c(OC)c2c(c1OC)OCO2`, the Activity in [1] is 88.9%; in series [2], 90.2%. In addition, the result in the series filed under Mus musculus [3], in the series listed under Mus musculus [4], with Erythrocyte [6], with Erythrocyte [7] and with Erythrocyte [11] was Active. In addition, the outcome in the series filed under Mus musculus [5] was inactive.
As for `Cc1c(C)c2c(c(C)c1O)CCC(C)(C(=O)O)O2` (stereo unspecified), the Activity in series [1] was determined as 94.9%. In addition, the result in the series filed under Mus musculus [3] was Active.
Turning to `C=CCc1cc(OC)c(OC)c(OC)c1OC`, the Activity came to 0.1% in series [1] and 1.47% in series [2]. Also, the result in the series listed under Mus musculus [3] and with Erythrocyte [8] was inactive. For the same compound, the result in the series listed under Mus musculus [4], with Erythrocyte [6], in the series with Erythrocyte [9] and in the series on Erythrocyte [10] was Active.
For the compound `C=CCc1ccc(OC)cc1`, the Activity came to 0.25% in series [1] and 1.16% in [2]. The outcome in the series listed under Mus musculus [3] and in the series with Erythrocyte [8] was inactive. The outcome in the series filed under Mus musculus [4], in the series with Erythrocyte [6], with Erythrocyte [9] and in the series on Erythrocyte [10] was Active.
Regarding `C=CCc1cc(OC)c2c(c1OC)OCO2` [APIOL], the figures for the Activity in series [1] and in [2] were 0.05% and 0.3%, respectively. Besides, the result in the series listed under Mus musculus [3], in the series filed under Mus musculus [4], in the series on Erythrocyte [6], in the series on Erythrocyte [9] and in the series on Erythrocyte [10] was Active. The outcome in the series filed under Mus musculus [5] and in the series on Erythrocyte [8] was inactive. For the same compound, the hemolysis at 5 h, 100 µM in series [12] was at most 10%.
In the case of `Cc1cc(C(C)(C)C)c(O)c(C(C)(C)C)c1`, the Activity in series [1] was found to be 72%. Also, the result in the series listed under Mus musculus [3], in the series with Erythrocyte [7], in the series on Erythrocyte [9], in the series on Erythrocyte [10] and in the series on Erythrocyte [13] was Active.
With `C=CCc1ccc2c(c1)OCO2` [SAFROLE], the values for the Activity in series [1] and in [2] were 1.26% and 10.6%, respectively. For the same compound, the outcome in the series filed under Mus musculus [3] and with Erythrocyte [8] was inactive. The outcome in the series filed under Mus musculus [4], with Erythrocyte [6], in the series on Erythrocyte [9] and in the series on Erythrocyte [10] was Active. In addition, in series [12], the hemolysis at 5 h, 100 µM was at most 10%.
Regarding `C=CCc1cc2c(c(OC)c1OC)OCO2` [DILLAPIOLE], the Activity in series [1] was 0.38%; in series [2], 3.94%. Moreover, the result in the series listed under Mus musculus [3], in the series filed under Mus musculus [4], in the series with Erythrocyte [6], in the series with Erythrocyte [8], with Erythrocyte [9] and in the series on Erythrocyte [10] was Active. Also, the outcome with Erythrocyte [13] was Active. Besides, the result in the series filed under Mus musculus [5] was inactive. Also, the hemolysis at 5 h, 100 µM in series [12] is at most 10%.
For the compound `C=CCc1ccccc1`, the Activity turned out to be 1.01% in series [1] and 4.29% in series [2]. For the same compound, the outcome in the series filed under Mus musculus [3] and in the series on Erythrocyte [8] was inactive. Moreover, the outcome in the series filed under Mus musculus [4], in the series on Erythrocyte [6], in the series with Erythrocyte [9] and in the series on Erythrocyte [10] was Active.
